pIC50: −log10 of the molar value.
molecular target: ROMK (Kir1.1) channel (Homo sapiens (Human), UniProt P48048); experiment: Thallium Flux Assay; assay type: cell-based
Procedure: A Thallium Flux Assay was performed on each of the final product compounds of the Examples. This assay has been described previously; see, e.g., PCT Published Application WO 2013/062900.

ROMK (Kir1.1) channel, sequence (P48048 whole entry): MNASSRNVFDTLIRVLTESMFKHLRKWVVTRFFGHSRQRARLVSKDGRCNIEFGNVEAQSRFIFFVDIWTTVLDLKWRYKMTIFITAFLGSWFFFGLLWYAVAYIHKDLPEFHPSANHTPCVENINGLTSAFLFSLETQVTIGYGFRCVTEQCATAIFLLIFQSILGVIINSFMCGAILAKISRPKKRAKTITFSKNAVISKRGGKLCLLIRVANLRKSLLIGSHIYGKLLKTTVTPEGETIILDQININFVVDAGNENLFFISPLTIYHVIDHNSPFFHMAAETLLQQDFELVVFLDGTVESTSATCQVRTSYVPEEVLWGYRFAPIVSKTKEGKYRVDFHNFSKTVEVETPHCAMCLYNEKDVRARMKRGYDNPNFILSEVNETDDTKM

| Compound | pIC50 |
| --- | --- |
| CC1=C(N2CC[C@]3(CC[C@@H](N[C@@H](C)c4ccc(-n5cnnn5)cn4)CC3)C2=O)COC1=O [Example 29, (5S,8r)-2-(4-methyl-5-oxo-2,5-dihydrofuran-3-yl)-8-({(1S)-1-[5-(1H-tetrazol-1-yl)pyridin-2-yl]ethyl}amino)-2-azaspiro[4.5]decan-1-one] | 7.70 |
| CC1=C(N2CC[C@]3(CC[C@H](NCc4ccc(-n5ncnn5)cc4)CC3)C2=O)COC1=O [Example 40, (5s,8s)-2-(4-methyl-5-oxo-2,5-dihydrofuran-3-yl)-8-{[4-(2H-tetrazol-2-yl)benzyl]amino}-2-azaspiro[4.5]decan-1-one] | 6.96 |
| CC1=C(N2CC[C@]3(CC[C@@H](N[C@H](C)c4ccc(-n5cnnn5)nc4)CC3)C2=O)COC1=O [Example 10, (5R,8r)-8-(((R)-1-(6-(1H-tetrazol-1-yl)pyridin-3-yl)ethyl)amino)-2-(4-methyl-5-oxo-2,5-dihydrofuran-3-yl)-2-azaspiro[4.5]decan-1-one] | 7.74 |
| C[C@@H]1C[C@]2(CC[C@H](NCc3cnc(-n4cnnn4)cn3)CC2)C(=O)N1C1=CC(=O)OC1 [Example 26, (3R,5s,8S)-3-methyl-2-(5-oxo-2,5-dihydrofuran-3-yl)-8-({[5-(1H-tetrazol-1-yl)pyrazin-2-yl]methyl}amino)-2-azaspiro[4.5]decan-1-one] | 6.72 |
| CC1=C(N2CC[C@]3(CC[C@](C)(NCc4cnc(-n5cnnn5)cn4)CC3)C2=O)COC1=O [Example 68, (5s,8s)-8-(((5-(1H-tetrazol-1-yl)pyrazin-2-yl)methyl)amino)-8-methyl-2-(4-methyl-5-oxo-2,5-dihydrofuran-3-yl)-2-azaspiro[4.5]decan-1-one] | 6.85 |
| (5s,8s)-2-(4-methyl-5-oxo-2,5-dihydrofuran-3-yl)-8-({[5-(1H-tetrazol-1-yl)pyrazin-2-yl]methyl}amino)-2-azaspiro[4.5]decan-1-one [Example 13] | 7.49 |
| CC1=C(N2CC[C@]3(CC[C@](C)(N(C)Cc4cnc(-n5cnnn5)cn4)CC3)C2=O)COC1=O [Example 127] | 7.04 |
| CC1=C(N2CC[C@]3(CC[C@@H](N[C@H](C)c4ccc(-n5cnnn5)cn4)CC3)C2=O)COC1=O [Example 32] | 6.96 |
| CC1=C(N2CC[C@]3(CC[C@@H](NCc4ccc5c(c4)Cn4nnnc4-5)CC3)C2=O)COC1=O [Example 11, (5r,8r)-2-(4-methyl-5-oxo-2,5-dihydrofuran-3-yl)-8-[(5H-tetrazolo[5,1-a]isoindol-7-ylmethyl)amino]-2-azaspiro[4.5]decan-1-one] | 6.96 |
| C[C@H]1C[C@]2(CC[C@@H](NCc3cnc(-n4cnnn4)cn3)CC2)C(=O)N1C1=CC(=O)OC1 [Example 66, (3S,5r,8S)-8-(((5-(1H-tetrazol-1-yl)pyrazin-2-yl)methyl)amino)-3-methyl-2-(5-oxo-2,5-dihydrofuran-3-yl)-2-azaspiro[4.5]decan-1-one] | 8.15 |
| C[C@H]1C[C@]2(CC[C@H](NCc3cnc(-n4cnnn4)cn3)CC2)C(=O)N1C1=CC(=O)OC1 [Example 28, (3S,5s,8R)-3-methyl-2-(5-oxo-2,5-dihydrofuran-3-yl)-8-({[5-(1H-tetrazol-1-yl)pyrazin-2-yl]methyl}amino)-2-azaspiro[4.5]decan-1-one] | 6.60 |
| CC1=C(N2CC[C@]3(CC[C@@H](NCc4ccc(-n5ncnn5)cc4)CC3)C2=O)COC1=O [Example 41, (5r,8r)-2-(4-methyl-5-oxo-2,5-dihydrofuran-3-yl)-8-{[4-(2H-tetrazol-2-yl)benzyl]amino}-2-azaspiro[4.5]decan-1-one] | 8.48 |
| C[C@H]1C[C@]2(CC[C@H](NCc3ccc4c(c3)Cn3nnnc3-4)CC2)C(=O)N1C1=CC(=O)OC1 [Example 62, (3S,5s,8R)-8-(((5H-tetrazolo[5,1-a]isoindol-7-yl)methyl)amino)-3-methyl-2-(5-oxo-2,5-dihydrofuran-3-yl)-2-azaspiro[4.5]decan-1-one] | 7.70 |
| CC1=C(N2CC[C@]3(CC[C@@H](N[C@H](C)c4cnc(-n5cnnn5)cn4)CC3)C2=O)COC1=O [Example 24, (5R,8r)-2-(4-methyl-5-oxo-2,5-dihydrofuran-3-yl)-8-({(1R)-1-[5-(1H-tetrazol-1-yl)pyrazin-2-yl]ethyl}amino)-2-azaspiro[4.5]decan-1-one] | 6.92 |
| CC1=C(N2CC[C@]3(CC[C@@H](NCc4ccc5c(c4C)Cn4nnnc4-5)CC3)C2=O)COC1=O [Example 54, (5r,8r)-2-(4-methyl-5-oxo-2,5-dihydrofuran-3-yl)-8-(((6-methyl-5H-tetrazolo[5,1-a]isoindol-7-yl)methyl)amino)-2-azaspiro[4.5]decan-1-one] | 7.49 |
| CC1=C(N2CC[C@]3(CC[C@@H](NCc4nnc(-n5cnnn5)cc4C)CC3)C2=O)COC1=O [Example 12, (5r,8r)-2-(4-methyl-5-oxo-2,5-dihydrofuran-3-yl)-8-({[4-methyl-6-(1H-tetrazol-1-yl)pyridazin-3-yl]methyl}amino)-2-azaspiro[4.5]decan-1-one] | 8.08 |
| CC1=C(N2CC[C@]3(CC[C@@H](NCc4cc5c(cc4C)-c4nnnn4C5)CC3)C2=O)COC1=O [Example 61, (5r,8r)-2-(4-methyl-5-oxo-2,5-dihydrofuran-3-yl)-8-(((8-methyl-5H-tetrazolo[5,1-a]isoindol-7-yl)methyl)amino)-2-azaspiro[4.5]decan-1-one] | 7.64 |
| CC1=C(N2CC[C@]3(CC[C@](C)(N(C)Cc4ccc(-n5cnnn5)nn4)CC3)C2=O)COC1=O [Example 115] | 7.82 |
| CC1=C(N2CC[C@]3(CC[C@@H](NCc4ncc(-n5cnnn5)nc4C)CC3)C2=O)COC1=O [Example 14, (5r,8r)-2-(4-methyl-5-oxo-2,5-dihydrofuran-3-yl)-8-({[3-methyl-5-(1H-tetrazol-1-yl)pyrazin-2-yl]methyl}amino)-2-azaspiro[4.5]decan-1-one] | 7.52 |
| CC1=C(N2C(=O)[C@]3(CC[C@@H](NCc4ccc5c(c4)Cn4nnnc4-5)CC3)C[C@H]2C)COC1=O [Example 55, (3R,5s,8S)-8-(((5H-tetrazolo[5,1-a]isoindol-7-yl)methyl)amino)-3-methyl-2-(4-methyl-5-oxo-2,5-dihydrofuran-3-yl)-2-azaspiro[4.5]decan-1-one] | 7.82 |

Now from value to compound:

| pIC50 | Compound |
| --- | --- |
| 7.44 | CC1=C(N2CC[C@]3(CC[C@@H](N(C)Cc4ccc(-n5ncnn5)nn4)CC3)C2=O)COC1=O [Example 113] |
| 6.37 | CC1=C(N2CC[C@]3(CC[C@H](N(C)Cc4ccc(-n5ncnn5)nn4)CC3)C2=O)COC1=O [Example 114] |
| 6.52 | CC1=C(N2CC[C@]3(CC[C@H](N(C)Cc4ccc(-n5ncnn5)cc4)CC3)C2=O)COC1=O [Example 111] |
| 7.66 | CC1=C(N2CC[C@]3(CC[C@@H](N(C)Cc4ncc(-n5cnnn5)nc4C)CC3)C2=O)COC1=O [Example 125] |
| 7.96 | CC1=C(N2CC[C@]3(CC[C@@H](N(C)[C@H](C)c4ccc(-n5cnnn5)nc4)CC3)C2=O)COC1=O [Example 94] |
| 7.00 | CCCN(C[C@H](O)c1ccc2c(c1C)COC2=O)C1CCC2(CC1)CCN(C1=C(C)C(=O)OC1)C2=O (stereo partly drawn) [Example 132, 8-{[(2R)-2-hydroxy-2-(4-methyl-1-oxo-1,3-dihydro-2-benzofuran-5-yl)ethyl](propyl)amino}-2-(4-methyl-5-oxo-2,5-dihydrofuran-3-yl)-2-azaspiro[4.5]decan-1-one] |
| 6.17 | CC1=C(N2CC[C@]3(CC[C@@H](N(CC(N)=O)Cc4ccc(-n5cnnn5)nc4)CC3)C2=O)COC1=O [Example 141] |
| 6.32 | CC1=C(N2CC[C@]3(CC[C@@H](N(C)[C@H](CO)c4ccc(-n5cnnn5)nc4)CC3)C2=O)COC1=O [Example 86] |
| 6.16 | CC1=C(N2CC[C@]3(CC[C@H](N(C)Cc4cnc(-n5cnnn5)cn4)CC3)C2=O)COC1=O [Example 91] |
| 6.80 | CC1=C(N2CC[C@]3(CC[C@H](N(CCO)Cc4ccc(-n5cnnn5)nc4)CC3)C2=O)COC1=O [Example 131, (5s,8s)-8-[(2-hydroxyethyl) {[6-(1H-tetrazol-1-yl)pyridin-3-yl]methyl}amino]-2-(4-methyl-5-oxo-2,5-dihydrofuran-3-yl)-2-azaspiro[4.5]decan-1-one] |
| 7.55 | CC1=C(N2CC[C@]3(CC[C@H](N(C)Cc4ccc(-n5cnnn5)nc4)CC3)C2=O)COC1=O [Example 83] |
| 8.03 | CC1=C(N2CC[C@]3(CC[C@@H](NCc4ccc(-n5ncnn5)nn4)CC3)C2=O)COC1=O [Example 75, (5r,8r)-8-(((6-(2H-tetrazol-2-yl)pyridazin-3-yl)methyl)amino)-2-(4-methyl-5-oxo-2,5-dihydrofuran-3-yl)-2-azaspiro[4.5]decan-1-one] |
| 6.33 | CCN(Cc1ccc(-n2cnnn2)nc1)[C@H]1CC[C@]2(CCN(C3=C(C)C(=O)OC3)C2=O)CC1 [Example 134] |
| 8.06 | CC1=C(N2CC[C@]3(CC[C@@H](N(C)Cc4ccc5c(c4)Cn4nnnc4-5)CC3)C2=O)COC1=O [Example 106] |
| 6.92 | CC1=C(N2CC[C@]3(CC[C@H](N(CC(=O)N(C)C)Cc4ccc(-n5cnnn5)nc4)CC3)C2=O)COC1=O [Example 139] |
| 7.62 | CC1=C(N2CC[C@]3(CC[C@@H](N(C)[C@@H](C)c4ccc(-n5cnnn5)nc4)CC3)C2=O)COC1=O [Example 95] |
| 6.82 | CC1=C(N2CC[C@]3(CC[C@H](N(C)CCc4ccc5c(c4)COC5=O)CC3)C2=O)COC1=O [Example 105] |
| 7.54 | CC1=C(N2CC[C@]3(CC[C@@H](N(C)Cc4cnc(-n5cnnn5)cn4)CC3)C2=O)COC1=O [Example 92] |
| 7.44 | CCN(Cc1ccc2c(c1)Cn1nnnc1-2)[C@H]1CC[C@@]2(CCN(C3=C(C)C(=O)OC3)C2=O)CC1 [Example 133] |
| 6.52 | CC1=C(N2CC[C@]3(CC[C@@H](N(C)[C@@H](CO)c4ccc(-n5cnnn5)nc4)CC3)C2=O)COC1=O [Example 102] |
| 7.11 | CC1=C(N2CC[C@]3(CC[C@H](N(C)C[C@H](O)c4ccc5c(c4C)COC5=O)CC3)C2=O)COC1=O [Example 123] |
| 7.19 | CC1=C(N2CCC3(CCC(N(C)C[C@H](O)c4ccc5c(c4C)COC5=O)CC3)C2=O)COC1=O (stereo partly shown) [Example 124] |
| 6.26 | CC1=C(N2CC[C@]3(CC[C@H](N(C)Cc4ccc(-n5cnnn5)cn4)CC3)C2=O)COC1=O [Example 87] |
